Laboratory results from patent US10059698B2, “Hesperetin aza-cinnamic acid derivatives with anti-tumor activities and a method of preparing the same” (Shaanxi University of Science and Technology, priority 2016, dated 2018).

Assays:
[1] = test system: nonismall cell lung cancer cells (A549); assay: tumor cell proliferation inhibition test (MTT), A549; assay type: cell-based; details: Homo sapiens, 48 hours
Text: (§1) The compounds of the present invention were subjected to tumor cell proliferation inhibition test, and the conventional MTT method was used as the test method.
(§2) Cell lines selected are nonismall cell lung cancer cells (A549), human hepatocellular carcinoma cells (SMMC-7721), human glioma cells (U251), human gastric adenocarcinoma cells (SGC-7901), and human breast cancer cells (MCF-7). The culture medium was DMEM+15% NBS+double antibody.
(§3) Preparation of the sample solutions: compounds were dissolved in DMSO (Merck), and PBS (−) was add to 100 μL of the solution or homogeneous suspension. The solution or suspension was diluted with DMSO and PBS(−) to final concentrations of 0.1, 1, 10, 20, 40, 60, 80, 100 μmol/L.
(§4) Anti-tumor agent cytarabine (Ara-C) was used as control and was prepared in the same way as the compounds.
(§5) Cell culture: adherent growth Tumor cells were cultured in 1640 medium containing 10% inactivated neonatal bovine serum and penicillin, streptomycin (1 million U/L), placed in carbon dioxide incubator at 37° C., 5% CO2, and saturated humidity. Cells were treated serially passaged 2-3 times. The first culture was washed with PBS 2 times, and digested with trypsin. Fresh culture medium was added evenly, cells were adjusted to a appropriate concentration and transferred into a new culture flask. Cell in an exponential phase were chosen for the tests.
(§6) Experimental Principle: Living cells mitochondria in the dehydrogenase can reduce yellow MTT to water-insoluble blue-violet product MT (MTT formazan), deposited in the cells. The amount of production is proportional to the number of living cells. […] DMSO can dissolve blue violet crystals, and the color depth is proportional to the amount contained, so the absorbance measured by the microplate reader can reflect the cell viability.
(§7) Methods: The exponential phase cells were digested and counted and seeded in 96-well plates at a density of 2×10^4/mL at 100 μl per well. After 24 hours of incubation, the cells to be tested were treated with 0.1, 1, 10, 20, 40, 60, 80, 100 μmol/L of the compounds. Each experimental group had 5 wells in each concentration, and the culture medium containing 0.4% DMSO was used as control. After 48 hours, the supernatant was discarded, and 100 μl of MTT ((2-(4,5-dimethyl-2-thiazolyl)-3,5-diphenyl-2H-[…]) (1 mg/mL) was added to each well. After another 4 hours, the supernatant was discarded, and 100 μL of DMSO was added to each well. After mixing, the absorbance was measured at 570 nm using a microplate reader. An IC50 calculation software was used to determine the half inhibitory concentration (IC50).

[2] = test system: human hepatocellular carcinoma cells (SMMC-7721); assay: tumor cell proliferation inhibition test (MTT), SMMC-7721; assay type: cell-based; details: SMMC-7721 cells, 48 hours
Text: as §1, §2, §3, §4, §5, §6, §7

[3] = test system: human glioma cells (U251); assay: tumor cell proliferation inhibition test (MTT), U251; assay type: cell-based; details: U-251, 48 hours
Text: as §1, §2, §3, §4, §5, §6, §7

[4] = test system: human gastric adenocarcinoma cells (SGC-7901); assay: tumor cell proliferation inhibition test (MTT), SGC-7901; assay type: cell-based; details: SGC-7901 cells, 48 hours
Text: as §1, §2, §3, §4, §5, §6, §7

[5] = test system: human breast cancer cells (MCF-7); assay: tumor cell proliferation inhibition test (MTT), MCF-7; assay type: cell-based; details: MCF7, MCF-7 cells, 48 hours
Text: as §1, §2, §3, §4, §5, §6, §7

[6] = test system: tumor cells (A549, SMMC-7721, U251, SGC-7901, MCF-7); assay: tumor cell proliferation inhibition test (MTT), all cell lines tested; assay type: cell-based, human; details: in some cell lines tested
Text: as §1, §2, §3, §4, §5, §6, §7

[7] = test system: HepG2 cells; details: in vitro; time-dependent and dose-effect relationship; cited from earlier work
[8] = rats; cited from earlier work

SMILES	IC50 [1] [µM]	IC50 [2] [µM]	IC50 [3] [µM]	IC50 [4] [µM]	IC50 [5] [µM]	activities compared with Ara-C [6]	inhibition of proliferation of HepG2 cells [7]	toxicity of doxorubicin [8]
Nc1ccn([C@@H]2O[C@H](CO)[C@@H](O)[C@@H]2O)c(=O)n1 [Ara-C, cytarabine, reference compound]	> 100	18.3 ± 0.64	19.2 ± 0.39	67.6 ± 3.73	76.9 ± 1.78			
COc1ccc([C@@H]2CC(=O)c3c(O)cc(OC(=O)/C=C/c4ccccn4)cc3O2)cc1O [Compound A, (S,E) 5-hydroxy-2-(3-hydroxy-4-methoxyphenyl)-4-oxochroman-7-yl 3-(pyridin-2-yl) acrylic acid ester]	35.1 ± 0.47	46.8 ± 1.56	> 100	89.9 ± 1.02	43.1 ± 1.31	equal or better activities than Ara-C		
COc1ccc([C@@H]2CC(=O)c3c(O)cc(OC(=O)/C=C/c4ccc(Cl)cn4)cc3O2)cc1O [Compound C, (S,E) 5-hydroxy-2-(3-hydroxy-4-methoxyphenyl)-4-oxochroman-7-yl 3-(5-chloropyridin-2-yl) acrylate acid ester]	5.54 ± 0.39	86.9 ± 2.28	11.7 ± 0.45	18.4 ± 1.71	22.7 ± 0.32	equal or better activities than Ara-C		
COc1ccc([C@@H]2CC(=O)c3c(O)cc(OC(=O)/C=C/c4ccc(F)cn4)cc3O2)cc1O [Compound D, (S,E) 5-hydroxy-2-(3-hydroxy-4-methoxyphenyl)-4-oxochroman-7-yl 3-(5-fluoropyridin-2-yl) acrylate acid ester]	7.28 ± 0.13	12.8 ± 1.37	57.13 ± 0.47	67.13 ± 0.28	23.7 ± 1.5	equal or better activities than Ara-C		
COc1ccc([C@@H]2CC(=O)c3c(O)cc(OC(=O)/C=C/c4ccc([N+](=O)[O-])cn4)cc3O2)cc1O [Compound E, (S,E) 5-hydroxy-2-(3-hydroxy-4-methoxyphenyl)-4-oxochroman-7-yl 3-(5-nitropyridin-2-yl) acrylate acid ester]	> 100	> 100	> 100	> 100	> 100			
COc1ccc([C@@H]2CC(=O)c3c(O)cc(OC(=O)/C=C/c4ccc(O)c(OC)n4)cc3O2)cc1O [Compound F, (S,E) 5-hydroxy-2-(3-hydroxy-4-methoxyphenyl)-4-oxochroman-7-yl 3-(5-hydroxy-6-methoxypyridin-2-yl) acrylate acid ester]	> 100	23.7 ± 1.5	> 100	> 100	92.1 ± 2.73	equal or better activities than Ara-C		
COc1ccc([C@@H]2CC(=O)c3c(O)cc(O)cc3O2)cc1O [hesperetin, Hesperetin]							can inhibit the proliferation of HepG2 cells in vitro	could reduce the toxicity of doxorubicin in rats

More lines, main results first:

IC50 [1] [µM]	IC50 [2] [µM]	IC50 [3] [µM]	IC50 [4] [µM]	IC50 [5] [µM]	SMILES	activities compared with Ara-C [6]	inhibition of proliferation of HepG2 cells [7]	toxicity of doxorubicin [8]
> 100	67.1 ± 1.74	46 ± 0.21	> 100	> 100	COc1ccc([C@@H]2CC(=O)c3c(O)cc(OC(=O)/C=C/c4ccc(C)cn4)cc3O2)cc1O [Compound B, (S,E) 5-hydroxy-2-(3-hydroxy-4-methoxyphenyl)-4-oxochroman-7-yl 3-(5-methylpyridin-2-yl) acrylate acid ester]	equal or better activities than Ara-C		
69.13 ± 0.36	> 100	28.5 ± 0.45	> 100	> 100	COc1ccc([C@@H]2CC(=O)c3c(O)cc(OC(=O)/C=C/c4ccccn4)cc3O2)cc1OC [Compound G, (S,E) 2-(3,4-dimethoxyphenyl)-5-hydroxy-4-oxochroman-7-yl 3-(pyridin-2-yl) acrylate acid ester]	equal or better activities than Ara-C		
> 100	47.88 ± 0.4	> 100	63.9 ± 2.28	> 100	COc1ccc([C@@H]2CC(=O)c3c(O)cc(OC(=O)/C=C/c4ccc(C)cn4)cc3O2)cc1OC [Compound H, (S,E) 2-(3,4-dimethoxyphenyl)-5-hydroxy-4-oxochroman-7-yl 3-(5-methylpyridin-2-yl) acrylate acid ester]	equal or better activities than Ara-C		
> 100	63.9 ± 2.28	63.9 ± 2.28	16.1 ± 0.47	> 100	COc1ccc([C@@H]2CC(=O)c3c(O)cc(OC(=O)/C=C/c4ccc(Cl)cn4)cc3O2)cc1OC [Compound I, (S,E) 2-(3,4-dimethoxyphenyl)-5-hydroxy-4-oxochroman-7-yl 3-(5-chloropyridin-2-yl) acrylate acid ester]	equal or better activities than Ara-C		
46.3 ± 0.47	84.31 ± 0.47	25.1 ± 0.47	> 100	16.1 ± 0.47	COc1ccc([C@@H]2CC(=O)c3c(O)cc(OC(=O)/C=C/c4ccc(F)cn4)cc3O2)cc1OC [Compound J, (S,E) 2-(3,4-dimethoxyphenyl)-5-hydroxy-4-oxochroman-7-yl 3-(5-fluoropyridin-2-yl) acrylate acid ester]	equal or better activities than Ara-C		
> 100	> 100	> 100	> 100	> 100	COc1ccc([C@@H]2CC(=O)c3c(O)cc(OC(=O)/C=C/c4ccc([N+](=O)[O-])cn4)cc3O2)cc1OC [Compound K, (S,E) 2-(3,4-dimethoxyphenyl)-5-hydroxy-4-oxochroman-7-yl 3-(5-nitropyridin-2-yl) acrylate acid ester]			
> 100	33.3 ± 2.08	> 100	63.87 ± 0.4	18.6 ± 1.01	COc1ccc([C@@H]2CC(=O)c3c(O)cc(OC(=O)/C=C/c4ccc(O)c(OC)n4)cc3O2)cc1OC [Compound M, (S,E) 2-(3,4-dimethoxyphenyl)-5-hydroxy-4-oxochroman-7-yl 3-(5-hydroxy-6-methoxypyridin-2-yl) acrylate acid ester]	equal or better activities than Ara-C		
